Results: patent publication USRE42930E1, “Aziridinyl-epothilone compounds” (Bristol-Myers Squibb Company, priority 2006, dated 2011)
Read-outs that look alike come from different tables or passages of the source.

What was measured:
[1] = test system: clonogenic KB cancer cells; experiment: Clonogenic cell survival (colony formation) assay; assay type: cell-based, human
Description: Cancer cells were seeded at 3.0E+05 cells in a T75 flask with 10 ml of RPMI1640 media, free of folic acid, and containing 10% fetal bovine serum and 25 mM HEPES. Cells were grown in a 37° C. incubator containing 5% CO2 for 2 days. On day 2, supernatants were removed from the flasks, and the flasks were divided into 2 groups. One group of cells were incubated with 5 ml of media containing […] of folic acid (Sigma) for 30 minutes and the others were grown in 5 ml of media without added folic acid. Cells were then treated with 20 nM of epothilone, epothilone analog, conjugated epothilone, or conjugated epothilone analog for one hour. At the end of the incubation, the drugs were removed from the flasks and the cells were washed with PBS buffer 3×. After washing, 5 ml of complete media were added into each flask, and the cell was grown in the CO2 incubator for 23 hours. The next morning, the cells were removed from the flasks by trypsinization, cell numbers were determined, and then cells were plated in a 6 well plates. Ten days after plating, colonies were stained with crystal violet and counted. The surviving fractions were determined.
This is important because it is the aziridine epothilone analog, e.g., Compound G, that mediates the antitumor effects upon release from folic acid. […] The concentration needed to kill 90% of clonogenic KB cancer cells (IC90) was determined after a drug exposure duration of 17 hours.

HCT116VM46 = experiment: In vitro MTS cytotoxicity assay, taxane-resistant HCT116VM46 (R/S ratio); assay type: cell-based, human; settings: R/S ratio = HCT116VM46 IC50/HCT116 IC50
Description: (§1) In vitro cytotoxicity was assessed in tumor cells using a tetrazolium-based colorimetric assay which takes advantage of the metabolic conversion of MTS (3-(4,5-dimethylthiazol-2-yl)-5-(3-carboxymethoxyphenyl)-2-(4-sulphenyl)-2H-tetrazolium, inner salt) to a reduced form that absorbs light at 492 nm. Cells were seeded 24 hr prior to addition of the epothilone, epothilone analog, conjugated epothilone, or conjugated epothilone analog. Following a 72 hour incubation at 37° C. with serially diluted compound, MTS, in combination with the electron coupling agent phenazine methosulfate, was added to the cells. The incubation was continued for 3 hours, then the absorbency of the medium at 492 nm was measured with a spectrophotometer to obtain the number of surviving cells relative to control populations. The results are expressed as median cytotoxic concentrations (IC50 values).
(§2) Other epothilone analogs, e.g., aziridinyl epothilones, are known in the art (see, e.g., U.S. Pat. No. 6,399,638; Regueiro-Ren, A, et al. (2001) Org. Letters. 3:2693-96) and show potent antitumor cytotoxicity. For example, an MTS assay that compared the relative cytotoxic potency of a number of epothilone analogs against a pair of taxane-resistant cancer cell lines (HCTVM46 and […]) was conducted (see Table 1). HCTVM46 is a human colon carcinoma cell line derived from the sensitive HCT116 parent line, and is resistant to taxanes due to overexpression of the 170 kD p-glyprotein drug efflux transporter. A2780Tax is a human ovarian carcinoma cell line derived from the parent A2780 line, and is resistant to paclitaxel as a result of a mutation in the tubulin amino acid sequence that impairs the ability of paclitaxel to bind.

[2] = test system: A2780 ovarian carcinoma cell line; experiment: In vitro MTS proliferation/cytotoxicity assay, A2780; assay type: cell-based, human
Description: as §1, §2
(§3) As is shown in Table 1, various aziridinyl epothilone analogs (Compounds CC-EE) show potent antitumor activity against both the HCT116 colon and A2780 ovarian carcinoma cell lines, compared to other known antitumor agents, e.g., paclitaxel, compound AA, and epothilone B.

A2780Tax = assay type: cell-based, human
Description: as §1, §2

[3] = test system: HCT116 colon carcinoma cell line; experiment: cells; assay type: cell-based, human
Description: as §1, §2, §3

[4] = test system: KB nasopharyngeal epidermoid carcinoma xenografts; experiment: In vivo antitumor efficacy, KB FRα(+) xenografts in nude mice; settings: KB model, FIG. 4
Text: (§4) Female CD2F1 mice (Harlan Sprague-Dawley Inc., 20-22 g) maintained in a controlled environment and provided with water and food ad libitum were used in these studies. The murine FRα(−) Madison 109 (M109) lung carcinoma (Marks et al., 1977) and the FR-expressing (FRα(+)) 98M109 variant were used to evaluate the efficacy of the epothilone, epothilone analog (e.g., epothilone derivative), folate-epothilone conjugate, or folate-epothilone analog conjugate. In addition, the human head and neck epidermoid carcinoma KB grown in nude mice was also used for this purpose. […]
(§5) Tumor response was determined by measurement of tumors with a caliper twice a week, until the tumors reached a predetermined “target” size of 1 gm. […]
(§6) Antitumor activity was evaluated at the maximum tolerated dose (MTD) which is defined as the dose level immediately […] which excessive toxicity (i.e. more than one death) occurred. When death occurred, the day of death was recorded. […]
(§7) To estimate tumor cell kill, the tumor volume doubling time (TVDT) was first calculated with the formula: TVDT=Median time (days) for control tumors to reach target size−Median time (days) for control tumors to reach half the target size And, Log cell kill=T-C÷(3.32×TVDT) Statistical evaluations of data were performed using Gehan's generalized Wilcoxon test.

folate receptor (FR) = target: T1, folate receptor (FR) (Homo sapiens, UniProt P15328); experiment: Displacement of radiolabeled folic acid from FR expressed on KB tumor cells; assay type: binding; settings: compared to folic acid (RA = 1.0)
T1 construct: FR expressed on KB tumor cells grown to confluence; endogenous in cells; host or cells: KB tumor cells
Description: The binding of these folate conjugates of Compound AA to FR was determined in an assay that measures displacement of radiolabeled folic acid from FR expressed on KB tumor cells grown to confluence.

[5] = test system: FRα(−) M109 murine lung carcinoma; experiment: In vivo antitumor efficacy, FRα(−) M109 parent tumor model; parameters: species or system mice; settings: bolus IV; FIG. 5
Text: as §4, §5, §6, §7

FRα(+) 98M109 tumors = experiment: In vivo antitumor efficacy, FRα(+) 98M109 tumors with folate analog competition; parameters: species or system mice; settings: folate analog at 20-fold excess of the dose of compound J; FIG. 6
Text: as §4, §5, §6, §7

[6] = Homo sapiens, A2780, MTS assay, mean IC50 ± SD from four separate experiments, read-out: A2780 IC5
[7] = Homo sapiens, A2780, read-out: A2780 IC5 (nM)
[8] = Homo sapiens, HCT-116, read-out: HCT116 IC50 (nM)

T1 sequence (P15328 25-234): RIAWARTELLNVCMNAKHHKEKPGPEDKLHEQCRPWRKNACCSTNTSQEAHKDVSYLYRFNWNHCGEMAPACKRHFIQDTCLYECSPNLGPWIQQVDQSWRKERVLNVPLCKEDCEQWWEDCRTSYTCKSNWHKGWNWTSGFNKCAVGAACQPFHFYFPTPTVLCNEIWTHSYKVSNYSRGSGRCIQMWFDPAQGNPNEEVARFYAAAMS

C/C(=C\c1csc(C)n1)[C@@H]1C[C@H]2[C@@H](CCCC(C)[C@H](O)[C@@H](C)C(=O)C(C)(C)[C@@H](O)CC(=O)O1)N2CCO (relative stereo) [Compound G, [1S-[1R*,3R*(E),7R*,10S*,11R*,12R*,16S*]]-7,11-Dihydroxy-17-[2-hydroxyethyl]-8,8,10,12-tetramethyl-3-[1-methyl-2-(2-methyl-4-thiazolyl)ethenyl]-4-oxa-17-azabicyclo[14.1.0]heptadecane-5,9-dione]
fold more potent than compound AA ([1]; IC90, KB cells, 17 hours): ~4 fold | fold more potent than compound CC ([1]; IC90, KB cells, 17 hours): ~2 fold | fold more potent than ixabepilone ([1]; IC90, KB cells, 17 hours): ~6 fold | concentration needed to kill 90% of clonogenic KB cancer cells (IC90) ([1]; drug exposure duration of 17 hours, FIG. 3): 4.3 nM

C/C(=C\c1csc(CN)n1)C1C[C@@H]2O[C@]2(C)CCCC(C)[C@H](O)[C@@H](C)C(=O)C(C)(C)[C@@H](O)CC(=O)O1 (some centres unmarked) [Compound AA]
R/S Ratio (HCT116) (HCT116VM46): 14.8 | IC50 [2, 6]: 1.1 ± 0.4 nM | R/S Ratio (A2780) (A2780Tax): 3 | IC50 ([3]; Homo sapiens, HCT-116, MTS assay, mean IC50 ± SD from four separate experiments, read-out: HCT116 IC50): 1.2 ± 0.3 nM

C/C(=C\c1csc(C)n1)C1C[C@@H]2N[C@@H]2CCCC(C)[C@H](O)[C@@H](C)C(=O)C(C)(C)[C@@H](O)CC(=O)O1 (some centres unmarked) [Compound CC]
R/S Ratio (HCT116) (HCT116VM46): 3.1 | IC50 [2, 7]: 3.4 ± 1.5 nM | R/S Ratio (A2780) (A2780Tax): 4.7 | IC50 [3, 8]: 4.2 ± 2.8 nM

C/C(=C\c1csc(C)n1)[C@@H]1C[C@H]2[C@@H](CCC[C@H](C)[C@H](O)[C@@H](C)C(=O)C(C)(C)[C@@H](O)CC(=O)O1)N2CCOC(=O)OCCSSC[C@H](NC(=O)[C@H](CC(=O)O)NC(=O)[C@H](CCCNC(=N)N)NC(=O)[C@H](CC(=O)O)NC(=O)CC[C@H](NC(=O)c1ccc(NCc2cnc3nc(N)[nH]c(=O)c3n2)cc1)C(=O)O)C(=O)O (some centres unmarked) [Compound J]
toxicity at two lower dose levels ([4]; dose levels below MTD): minimal toxicity | antitumor effects compared at the MTDs ([4]; versus ixabepilone): superior antitumor effects than ixabepilone | relative affinity (RA) for folate receptor (folate receptor (FR)): 0.77 | antitumor activity in FRα(−) M109 parent tumor model [5]: poor activity at all dose levels tested | effect of co-administration of a folate analog on antitumor effects (FRα(+) 98M109 tumors): protect FRα(+) 98M109 tumors from the antitumor effects of compound J

C/C(=C\c1csc(C)n1)C1C[C@H]2[C@@H](CCCC(C)[C@H](O)[C@@H](C)C(=O)C(C)(C)[C@@H](O)CC(=O)O1)N2C (some centres unmarked) [DD]
R/S Ratio (HCT116) (HCT116VM46): 0.6 | IC50 [2, 7]: 0.25 ± 0.06 nM | R/S Ratio (A2780) (A2780Tax): 4.1 | IC50 [3, 8]: 0.37 ± 0.13 nM

C/C(=C\c1csc(C)n1)[C@@H]1C[C@@H]2O[C@]2(C)CCC[C@H](C)[C@H](O)[C@@H](C)C(=O)C(C)(C)[C@@H](O)CC(=O)O1 [Epothilone B]
R/S Ratio (HCT116) (HCT116VM46): 0.5 | IC50 ([2]; MTS assay, mean IC50 ± SD from four separate experiments, read-out: A2780 IC5): 0.23 ± 0.09 nM | R/S Ratio (A2780) (A2780Tax): 2.5 | IC50 ([3]; MTS assay, mean IC50 ± SD from four separate experiments, read-out: HCT116 IC50): 0.4 ± 0.13 nM

Nc1nc2ncc(CNc3ccc(C(=O)N[C@@H](CCC(=O)O)C(=O)O)cc3)nc2c(=O)[nH]1 [folic acid]
relative affinity (RA) for folate receptor (folate receptor (FR)): 1.0

C/C(=C\c1csc(C)n1)[C@@H]1C[C@@H]2O[C@]2(C)CCC[C@H](C)[C@H](O)[C@@H](C)C(=O)C(C)(C)[C@@H](O)CC(=O)N1 [ixabepilone]
antitumor activity in FRα(−) M109 parent tumor model [5]: active at its MTD

CC(=O)O[C@H]1C(=O)[C@@]2(C)[C@H]([C@H](OC(=O)c3ccccc3)[C@]3(O)C[C@H](OC(=O)[C@H](O)[C@@H](NC(=O)c4ccccc4)c4ccccc4)C(C)=C1C3(C)C)[C@]1(OC(C)=O)CO[C@@H]1C[C@@H]2O [paclitaxel]
R/S Ratio (HCT116) (HCT116VM46): 150 | IC50 [2, 6]: 3.1 ± 1 nM
